Source: patent US9517993B2, “Antagonists of the toll-like receptor 1/2 complex” (THE REGENTS OF THE UNIVERSITY OF COLORADO, a body corporate, priority 2012, dated 2016)

What was measured:
Format in all cases: cell-based
TLR3 = target: T1, TLR3 (Mus musculus, UniProt Q99MB1); assay: RAW 264.7 nitric oxide TLR selectivity assay (Poly (I:C)); conditions: 15 μg/mL Poly (I:C)
T1 construct: RAW 264.7 Cells Nitric Oxide TLR Selectivity Assay; endogenous in cells; host or cells: RAW 264.7
T1 sequence (Q99MB1 26-905): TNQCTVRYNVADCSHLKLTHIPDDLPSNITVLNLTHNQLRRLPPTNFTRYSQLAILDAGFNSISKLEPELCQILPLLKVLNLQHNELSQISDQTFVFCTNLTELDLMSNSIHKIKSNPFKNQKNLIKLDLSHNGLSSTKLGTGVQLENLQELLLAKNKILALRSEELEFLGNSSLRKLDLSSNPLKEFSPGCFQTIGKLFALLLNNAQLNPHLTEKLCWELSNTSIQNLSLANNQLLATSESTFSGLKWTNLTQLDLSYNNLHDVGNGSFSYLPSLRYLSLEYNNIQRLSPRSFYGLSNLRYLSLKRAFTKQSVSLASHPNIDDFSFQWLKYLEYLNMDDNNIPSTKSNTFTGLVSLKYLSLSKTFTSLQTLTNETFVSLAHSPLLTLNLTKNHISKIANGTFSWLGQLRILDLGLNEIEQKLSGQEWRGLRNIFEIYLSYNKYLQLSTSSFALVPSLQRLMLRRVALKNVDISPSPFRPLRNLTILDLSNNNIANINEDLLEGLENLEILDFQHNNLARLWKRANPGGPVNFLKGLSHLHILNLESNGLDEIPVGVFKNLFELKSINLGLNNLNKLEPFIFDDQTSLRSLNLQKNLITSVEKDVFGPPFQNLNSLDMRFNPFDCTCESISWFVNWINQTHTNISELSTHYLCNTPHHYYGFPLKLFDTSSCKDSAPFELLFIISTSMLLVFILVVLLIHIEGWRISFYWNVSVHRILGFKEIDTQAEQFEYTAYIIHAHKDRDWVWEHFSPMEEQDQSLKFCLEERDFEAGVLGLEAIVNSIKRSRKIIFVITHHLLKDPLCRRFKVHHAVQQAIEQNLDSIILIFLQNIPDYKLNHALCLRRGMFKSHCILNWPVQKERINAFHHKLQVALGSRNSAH
Description: (§1) RAW 264.7 (Mouse leukaemic monocyte macrophage cell line) cells were grown in RPMI 1640 medium, supplemented with 10% FBS, penicillin (100 U/mL) and streptomycin ([…]). RAW cells were then planted in 96-well plates at 80,000 cells per well and grown for 24 h in the media descried previously at 37° C. in a 5% CO2 humidified incubator. After 24 h, non-adherent cells and media were removed and replaced with fresh unsupplemented RPMI 1640 medium. The adherent macrophages were treated with Pam3CSK4 (CAS No. 112208-00-1; a synthetic triacylated lipopeptide (LP) that mimics the acylated amino terminus of bacterial LPs) (200 ng/mL) (Invivogen, USA), an agonist of TLR1/2, and then added different concentrates of potential inhibitor. Two rows were only treated with Pam3CSK4 as control. […] The reaction was quenched by addition of 5 μL of a 3 M aqueous NaOH solution and the plate was read on Beckman Coulter DTX880 reader (Beckman Coulter, Calif., USA) with excitation at 365 nm and emission at 450 nm. The nitrite (a stable metabolite of nitric oxide) concentration was determined from a nitrite standard curve. The inhibition rate (%) of NO release was determined using the following formula: Inhibition (%)=[Pam3CSK4(OD450) […]]/[Pam3CSK4 (OD450)−Control (OD450)]×100. The IC50 values for both inhibition and cytotoxicity were determined graphically using software Origin v7.5. […]

TLR4 = target: T2, TLR4 (Mus musculus, UniProt Q9JHF9+Q9QUK6); assay: RAW 264.7 nitric oxide TLR selectivity assay (LPS); conditions: 10 ng/mL LPS
T2 construct: RAW 264.7 Cells Nitric Oxide TLR Selectivity Assay; endogenous in cells; host or cells: RAW 264.7
T2 sequence (Q9QUK6 26-835): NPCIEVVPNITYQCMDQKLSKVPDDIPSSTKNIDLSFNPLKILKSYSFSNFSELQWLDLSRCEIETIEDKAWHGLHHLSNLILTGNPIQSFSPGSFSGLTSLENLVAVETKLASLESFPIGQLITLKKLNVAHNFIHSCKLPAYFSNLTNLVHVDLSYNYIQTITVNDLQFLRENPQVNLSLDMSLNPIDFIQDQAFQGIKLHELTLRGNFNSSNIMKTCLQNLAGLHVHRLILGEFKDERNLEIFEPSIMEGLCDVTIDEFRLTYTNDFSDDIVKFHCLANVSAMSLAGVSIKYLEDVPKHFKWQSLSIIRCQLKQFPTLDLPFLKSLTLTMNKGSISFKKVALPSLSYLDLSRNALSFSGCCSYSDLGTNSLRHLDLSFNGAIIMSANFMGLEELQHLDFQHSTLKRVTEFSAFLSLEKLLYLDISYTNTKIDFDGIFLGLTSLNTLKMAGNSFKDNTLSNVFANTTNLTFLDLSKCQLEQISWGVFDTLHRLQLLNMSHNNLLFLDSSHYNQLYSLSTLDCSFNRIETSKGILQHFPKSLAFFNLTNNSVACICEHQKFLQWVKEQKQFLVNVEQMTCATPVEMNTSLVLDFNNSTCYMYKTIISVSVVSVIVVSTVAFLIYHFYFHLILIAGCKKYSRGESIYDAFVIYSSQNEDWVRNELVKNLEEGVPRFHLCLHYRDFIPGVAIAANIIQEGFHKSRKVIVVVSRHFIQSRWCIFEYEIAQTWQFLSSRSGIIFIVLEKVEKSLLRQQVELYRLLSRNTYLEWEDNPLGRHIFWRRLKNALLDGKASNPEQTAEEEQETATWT
T2 sequence (Q9JHF9 19-160): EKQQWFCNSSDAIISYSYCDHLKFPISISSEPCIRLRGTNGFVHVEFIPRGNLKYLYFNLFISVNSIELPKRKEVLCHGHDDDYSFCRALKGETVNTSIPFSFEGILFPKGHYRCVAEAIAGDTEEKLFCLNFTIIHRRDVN
Description: as §1

TLR2/6 = target: T3, TLR2/6 (Mus musculus, UniProt Q9EPW9+Q9QUN7); assay: RAW 264.7 nitric oxide TLR selectivity assay (FSL-1); conditions: 10 ng/mL FSL-1
T3 construct: RAW 264.7 Cells Nitric Oxide TLR Selectivity Assay; endogenous in cells; host or cells: RAW 264.7
Description: RAW 264.7 (Mouse leukaemic monocyte macrophage cell line) cells were grown in RPMI 1640 medium, supplemented with 10% FBS, penicillin (100 U/mL) and streptomycin ([…]). RAW cells were then planted in 96-well plates at 80,000 cells per well and grown for 24 h in the media descried previously at 37° C. in a 5% CO2 humidified incubator. After 24 h, non-adherent cells and media were removed and replaced with fresh unsupplemented RPMI 1640 medium. The adherent macrophages were treated with Pam3CSK4 (CAS No. 112208-00-1; a synthetic triacylated lipopeptide (LP) that mimics the acylated amino terminus of bacterial LPs) (200 ng/mL) (Invivogen, USA), an agonist of TLR1/2, and then added different concentrates of potential inhibitor. Two rows were only treated with Pam3CSK4 as control. Plates were then incubated for an additional 24 h. Following incubation 100 μL of media was removed and added to flat black 96-well microfluor plates (Thermo Scientific, MA, USA). To each well, 10 μL of 2,3-diaminonaphthalene (0.05 mg/mL in 0.62 M aqueous HCl solution) was added and incubated for 15 min in the dark. The reaction was quenched by addition of 5 μL of a 3 M aqueous NaOH solution and the plate was read on Beckman Coulter DTX880 reader (Beckman Coulter, Calif., USA) with excitation at 365 nm and emission at 450 nm. The nitrite (a stable metabolite of nitric oxide) concentration was determined from a nitrite standard curve. The inhibition rate (%) of NO release was determined using the following formula: Inhibition (%)=[Pam3CSK4(OD450) […]]/[Pam3CSK4 (OD450)−Control (OD450)]×100. The IC50 values for both inhibition and cytotoxicity were determined graphically using software Origin v7.5.
This assay was run in a similar manor as the “In Vitro TLR1/2 Inhibition Assay”. High molecule weight Poly (I:C), LPS (lipopolysaccharide), FSL-1 (Synthetic diacylated lipoprotein—TLR2/TLR6 ligand commercially available from Invivogen, USA), and R848 ([…]) were used to selectively activate TLR3, TLR4, TLR2/6 and TLR7 in place of Pam3CSK4, respectively.

T3 sequence (Q9QUN7 25-784): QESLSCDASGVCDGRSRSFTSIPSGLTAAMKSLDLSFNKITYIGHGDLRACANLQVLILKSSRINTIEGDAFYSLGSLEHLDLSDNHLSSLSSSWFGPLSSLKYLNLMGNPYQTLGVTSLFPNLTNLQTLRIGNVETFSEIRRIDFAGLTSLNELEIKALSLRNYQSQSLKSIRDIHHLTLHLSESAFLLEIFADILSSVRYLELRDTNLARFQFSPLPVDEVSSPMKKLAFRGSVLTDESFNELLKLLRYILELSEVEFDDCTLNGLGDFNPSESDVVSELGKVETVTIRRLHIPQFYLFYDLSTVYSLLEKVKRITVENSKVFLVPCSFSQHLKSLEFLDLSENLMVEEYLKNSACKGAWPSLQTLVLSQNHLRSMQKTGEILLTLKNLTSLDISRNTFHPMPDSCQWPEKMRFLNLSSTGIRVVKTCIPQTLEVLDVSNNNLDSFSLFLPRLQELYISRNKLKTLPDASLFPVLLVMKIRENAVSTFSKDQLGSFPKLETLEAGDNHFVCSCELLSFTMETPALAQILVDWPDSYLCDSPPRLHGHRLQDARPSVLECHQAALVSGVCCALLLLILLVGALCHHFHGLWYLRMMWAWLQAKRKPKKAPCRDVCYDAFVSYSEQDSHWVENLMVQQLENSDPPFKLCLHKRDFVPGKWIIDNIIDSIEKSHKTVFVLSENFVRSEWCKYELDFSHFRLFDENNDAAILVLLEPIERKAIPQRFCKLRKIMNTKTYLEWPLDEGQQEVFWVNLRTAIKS
T3 sequence (Q9EPW9 28-795): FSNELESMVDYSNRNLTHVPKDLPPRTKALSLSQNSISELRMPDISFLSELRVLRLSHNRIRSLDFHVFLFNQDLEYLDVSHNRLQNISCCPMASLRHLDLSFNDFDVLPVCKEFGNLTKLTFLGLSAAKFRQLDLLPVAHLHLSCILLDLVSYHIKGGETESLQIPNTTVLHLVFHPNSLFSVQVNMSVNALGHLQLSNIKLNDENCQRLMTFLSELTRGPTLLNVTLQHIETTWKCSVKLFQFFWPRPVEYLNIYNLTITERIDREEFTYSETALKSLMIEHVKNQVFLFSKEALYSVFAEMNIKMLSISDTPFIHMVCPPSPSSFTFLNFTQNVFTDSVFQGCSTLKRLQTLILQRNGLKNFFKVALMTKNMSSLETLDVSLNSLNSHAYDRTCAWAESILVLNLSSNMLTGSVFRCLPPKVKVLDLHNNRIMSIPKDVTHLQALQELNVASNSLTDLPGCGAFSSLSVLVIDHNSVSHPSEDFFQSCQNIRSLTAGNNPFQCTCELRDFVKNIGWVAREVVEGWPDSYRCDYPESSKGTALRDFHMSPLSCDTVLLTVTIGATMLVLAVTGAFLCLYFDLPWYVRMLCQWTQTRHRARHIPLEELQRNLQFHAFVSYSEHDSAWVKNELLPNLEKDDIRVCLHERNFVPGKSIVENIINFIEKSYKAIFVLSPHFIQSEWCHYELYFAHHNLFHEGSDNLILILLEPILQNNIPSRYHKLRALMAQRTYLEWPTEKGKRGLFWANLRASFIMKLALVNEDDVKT

Row | inhibition of TLR3 signaling (TLR3; 3 μM compound) | inhibition of TLR4 signaling (TLR4; 3 μM compound) | inhibition of TLR2/6 signaling (TLR2/6; 3 μM compound) | inhibition of TLR3 signaling (TLR3; 0.5 μM compound) | inhibition of TLR4 signaling (TLR4; 0.5 μM compound) | inhibition of TLR2/6 signaling (TLR2/6; 0.5 μM compound) | inhibition of TLR2/6 signaling (TLR2/6; 0.5 μM compound, listed as Compound 17) | SMILES
1 | no other homologous TLRs | no other homologous TLRs | no other homologous TLRs |  |  |  |  | O=c1c(O)cccc2cc(O)c(O)c(O)c12 [NCI35676, purpurogallin, reference compound]
2 |  |  |  | without affecting other TLRs | without affecting other TLRs | no significant inhibition | without affecting other TLRs | CCCCCCOC(=O)c1cc(O)c(=O)c2c(O)c(O)c(OC)cc2c1 [compound 17, Hexyl 3,4,6-trihydroxy-2-methoxy-5-oxo-5H-benzo[7]annulene-8-carboxylate]
